Experimental data published in ChEMBL document CHEMBL2407073, “RCAI-61 and related 6'-modified analogs of KRN7000: their synthesis and bioactivity for mouse lymphocytes to produce interferon-γ in vivo” (Bioorg Med Chem, 2013).
Active and inactive are the calls of the source.

Key:
Assay type in all cases: functional, organism-based
[1] = test system: Mus musculus; experiment: Immunostimulatory activity in C57BL/6J mouse assessed as increase in production of IFNgamma in serum at 2 ug, iv by ELISA
[2] = test system: Mus musculus; experiment: Immunostimulatory activity in C57BL/6J mouse assessed as increase in production of IL-12p70 in serum at 2 ug, iv measured at 3 to 6 hrs by cytometric bead array method
[3] = test system: Mus musculus; experiment: Immunostimulatory activity in C57BL/6J mouse assessed as increase in production of IL-4 in serum at 2 ug, iv measured at 3 hrs by cytometric bead array method
[4] = test system: Mus musculus; experiment: Immunostimulatory activity in C57BL/6J mouse assessed as increase in production of IFNgamma in serum at 0.02 ug, iv by ELISA
[5] = test system: Mus musculus; experiment: Immunostimulatory activity in iv dosed C57BL/6J mouse assessed as increase in production of IL-4 in serum measured at 3 hrs by cytometric bead array method
[6] = test system: Mus musculus; experiment: Immunostimulatory activity in C57BL/6J mouse assessed as increase in production of IL-4 in serum at 0.02 to 2 ug, iv measured at 3 hrs by cytometric bead array method

Measured: Activity

CCCCCCCCCCCCCCCCCCCCCCCCCC(=O)N[C@@H](CO[C@H]1O[C@H](COCCO)[C@H](O)[C@H](O)[C@H]1O)[C@H](O)[C@H](O)CCCCCCCCCCCCCC
active: [1] | [2] | [3]

CCCCCCCCCCCCCCCCCCCCCCCCCC(=O)N[C@@H](CO[C@H]1O[C@H](COCCC)[C@H](O)[C@H](O)[C@H]1O)[C@H](O)[C@H](O)CCCCCCCCCCCCCC
active: [1] | [2] | [3]

CCCCCCCCCCCCCCCCCCCCCCCCCC(=O)N[C@@H](CO[C@H]1O[C@H](COCOC)[C@H](O)[C@H](O)[C@H]1O)[C@H](O)[C@H](O)CCCCCCCCCCCCCC
active: [1] | [2] | [3]

CCCCCCCCCCCCCCCCCCCCCCCCCC(=O)N[C@@H](CO[C@H]1O[C@H](COC)[C@H](O)[C@H](O)[C@H]1O)[C@H](O)[C@H](O)CCCCCCCCCCCCCC
active: [4] | [1] | [5] Dose-dependent effect | [2] | [3]

CCCCCCCCCCCCCCCCCCCCCCCCCC(=O)N[C@@H](CO[C@H]1O[C@H](COCOCCOC)[C@H](O)[C@H](O)[C@H]1O)[C@H](O)[C@H](O)CCCCCCCCCCCCCC
active: [1] | [2] | [3]

CCCCCCCCCCCCCCCCCCCCCCCCCC(=O)N[C@@H](CO[C@H]1O[C@H](CC)[C@H](O)[C@H](O)[C@H]1O)[C@H](O)[C@H](O)CCCCCCCCCCCCCC
active: [1] | [2] | [3]

CCCCCCCCCCCCCCCCCCCCCCCCCC(=O)N[C@@H](CO[C@H]1O[C@H](CO)[C@H](O)[C@H](O)[C@H]1O)[C@H](O)[C@H](O)CCCCCCCCCCCCCC
active: [1] | [6] | [2] | [3]

CCCCCCCCCCCCCCCCCCCCCCCCCC(=O)N[C@@H](CO[C@H]1OC[C@H](O)[C@H](O)[C@H]1O)[C@H](O)[C@H](O)CCCCCCCCCCCCCC
active: [1] | [2] | [3]

CCCCCCCCCCCCCCCCCCCCCCCCCC(=O)N[C@@H](CO[C@H]1O[C@H](COCC)[C@H](O)[C@H](O)[C@H]1O)[C@H](O)[C@H](O)CCCCCCCCCCCCCC
active: [1] | [2] | [3]

CCCCCCCCCCCCCCCCCCCCCCCCCC(=O)N[C@@H](CO[C@H]1O[C@H](C)[C@H](O)[C@H](O)[C@H]1O)[C@H](O)[C@H](O)CCCCCCCCCCCCCC
active: [1] | [2] | [3]

CCCCCCCCCCCCCCCCCCCCCCCCCC(=O)N[C@@H](CO[C@H]1O[C@H](CF)[C@H](O)[C@H](O)[C@H]1O)[C@H](O)[C@H](O)CCCCCCCCCCCCCC
active: [1] | [2] | [3]
